# Source: US9802899B2, “Heterocyclic compounds as pesticides” (BAYER CROPSCIENCE AG, priority 2012, dated 2017)
# Where two headings read alike, the source gives them in different places.
# How the values were obtained:
# [1] = Determination of the log P values by HPLC (formic acid method); assay type: physicochemical; details: reversed-phase column (C 18), acidic range (pH 3.4), 55° C.
# Procedure: 1) Description of Method for Determination of the Log P Values (Formic Acid Method)
# Eluents for determination in the acidic range (pH 3.4):
# Eluent A: acetonitrile+1 ml of formic acid/liter. Eluent B: water+0.9 ml of formic acid/liter.
# The lambda max values were determined in the maxima of the chromatographic signals using the UV spectra from 200 nm to 400 nm.
# spider mites = experiment: spider mite test, efficacy in % after 6 days; assay type: in vivo; details: 100% = all spider mites killed, 0% = none killed
# Procedure: After 6 days, the efficacy in % is determined. 100% means that all of the spider mites have been killed; 0% means that none of the spider mites have been killed.
# Cooperia curticei = Cooperia curticei test (COOPCU); assay type: in vivo; details: for pest or weed control at 100 ppm / pest or weed control at 20 ppm: Cooperia curticei, 120 h, read-out: efficacy (kill)
# Procedure: Cooperia curticei Test (COOPCU)
# (§1) Solvent: dimethyl sulphoxide
# To produce a suitable preparation of active compound, 10 mg of active compound are mixed with 0.5 ml of dimethyl sulphoxide, and the concentrate is diluted with Ringer solution to the desired concentration.
# Vessels containing the active compound preparation of the desired concentration are populated with about 40 nematode larvae (Cooperia curticei).
# After 5 days, the kill in % is determined 100% means that all of the larvae have been killed; 0% means that none of the larvae have been killed.
# Meloidogyne incognita = Meloidogyne incognita test (MELGIN); assay type: in vivo; details: application rate 20 ppm, lettuce in sand, after 14 days; for pest or weed control at 20 ppm: Meloidogyne incognita, 336 h, read-out: nematicidal effect (formation of galls)
# Procedure: Meloidogyne incognita Test (MELGIN)
# Solvent: 125.0 parts by weight of acetone
# To prepare a suitable active compound preparation, 1 part by weight of active compound is mixed with the stated amount of solvent and the concentrate is diluted with water to the desired concentration.
# Vessels are filled with sand, active compound solution, an egg/larvae suspension of the root-knot nematode (Meloidogyne incognita) and lettuce seeds. The lettuce seeds germinate and the plants develop. On the roots, galls are formed.
# After 14 days, the nematicidal effect in % is determined by the formation of galls. 100% means that no galls have been found; 0% means that the number of galls on the treated plants corresponds to the untreated control.
# Lucilia cuprina larvae = experiment: Lucilia cuprina test (LUCICU); assay type: in vivo; details: application rate 100 ppm; larvae on treated horse meat; after 2 days
# Procedure: Lucilia cuprina Test (LUCICU)
# as §1
# To produce a suitable preparation of active compound, 10 mg of active compound are mixed with 0.5 ml of dimethyl sulphoxide, and the concentrate is diluted with water to the desired concentration.
# Vessels containing horse meat treated with the active compound preparation of the desired concentration are populated with about 20 Lucilia cuprina larvae.
# After 2 days, the kill in % is determined 100% means that all of the larvae have been killed; 0% means that none of the larvae have been killed.
# Phaedon cochleariae = Phaedon cochleariae spray test (PHAECO); assay type: in vivo; details: foliar, 168 h, application rate 500 g/ha, larvae on Chinese cabbage leaf discs, after 7 days, read-out: efficacy
# Procedure: Phaedon cochleariae Spray Test (PHAECO)
# Solvents: 78.0 parts by weight of acetone • • 1.5 parts by weight of dimethylformamide
# Emulsifier: 0.5 part by weight of alkylaryl polyglycol ether
# To produce a suitable preparation of active compound, 1 part by weight of active compound is mixed with the stated amounts of solvents and emulsifier, and the concentrate is diluted with emulsifier-containing water to the desired concentration.
# After 7 days, the efficacy in % is determined. 100% means that all of the beetle larvae have been killed; 0% means that none of the beetle larvae have been killed.
# Boophilus microplus = Boophilus microplus test (DIP); assay type: in vivo; details: application rate 100 ppm, after 7 days by laying of fertile eggs, 100% = no fertile eggs
# Procedure: Boophilus microplus Test (DIP)
# Test animals: adult engorged Boophilus microplus females of the SP-resistant Parkhurst strain
# as §1
# 10 mg of active compound are dissolved in 0.5 ml of dimethyl sulphoxide. For the purpose of preparing a suitable formulation, the active compound solution is diluted with water to the concentration desired in each case.
# This active compound preparation is pipetted into tubes. 8-10 ticks are transferred into a further tube with holes. The tube is immersed into the active compound formulation, and all ticks are completely wetted. After the liquid has run out, the ticks are transferred onto filter discs in plastic dishes and stored in a climate-controlled room.
# The activity is assessed after 7 days by laying of fertile eggs. Eggs whose fertility is not visible from the outside are stored in a climate-controlled cabinet until the larvae hatch. An efficacy of 100% means that none of the ticks has laid any fertile eggs.
# [2] = reversed-phase HPLC column (C 18)
# [3] = application rate 100 ppm, nematode larvae, after 5 days
smiles,measurement,setting,value
O=C(Nc1ccn(-c2ccccc2F)n1)c1ccccc1Br [Compound I-1-10],log P,[1],2.78
same,efficacy in %,spider mites; application rate of 500 g/ha,80%
O=C(Nc1ccn(-c2ccccc2Cl)n1)c1ccccc1OC(F)(F)F [Compound I-1-18],log P,[1],3.28
same,efficacy in %,spider mites; application rate of 500 g/ha,80%
"O=C(Nc1ccn(-c2ccccc2Cl)n1)c1ccccc1Cl [Compound I-1-20, 2-Chloro-N-[1-(2-chlorophenyl)-1H-pyrazol-3-yl]benzamide]",chromatographic logP,[1]; [2],2.8
same,pest or weed control at 100 ppm,Cooperia curticei; [3],90%
same,pest or weed control at 20 ppm,Meloidogyne incognita,90%
same,efficacy (kill),Lucilia cuprina larvae,90%
same,pest or weed control at 500 g/ha,Phaedon cochleariae,100%
O=C(Nc1ccn(-c2ccccc2Cl)n1)c1ccccc1I [Compound I-1-33],log P,[1],2.95
same,efficacy,Boophilus microplus,100%
O=C(Nc1ccn(-c2ccccc2Cl)n1)c1c(F)cccc1Cl [Compound I-1-37],log P,[1],2.84
same,efficacy (kill),Lucilia cuprina larvae,90%
O=C(Nc1ccn(-c2ccccc2Cl)n1)c1ncccc1C(F)(F)F [Compound I-1-39],log P,[1],2.99
same,efficacy,Boophilus microplus,90%
same,efficacy in %,spider mites; application rate of 500 g/ha,80%
O=C(Nc1ccn(-c2ccccc2Cl)n1)c1cccnc1Cl [Compound I-1-43],log P,[1],2.19
same,efficacy in %,spider mites; application rate of 100 g/ha,90%
Cc1nn(C)c(Cl)c1C(=O)Nc1ccn(-c2ccccc2Cl)n1 [Compound I-1-48],log P,[1],2.46
same,efficacy,Boophilus microplus,100%
O=C(Nc1ccn(-c2ccccc2Br)n1)c1ccccc1Cl [Compound I-1-51],log P,[1],2.83
same,efficacy (kill),Lucilia cuprina larvae,90%
O=C(Nc1ccn(-c2ccccc2Br)n1)c1ccccc1I [Compound I-1-53],log P,[1],3.07
same,efficacy,Boophilus microplus,90%
Cc1ncccc1C(=O)Nc1ccn(-c2cc(F)ccc2F)n1 [Compound I-1-69],log P,[1],1.53
same,efficacy (kill),Cooperia curticei; [3],80%
same,efficacy (kill),Lucilia cuprina larvae,90%
O=C(Nc1ccn(-c2c(F)cccc2F)n1)c1ccccc1Br [Compound I-1-82],log P,[1],2.59
same,efficacy (kill),Lucilia cuprina larvae,95%
same,efficacy,Boophilus microplus,80%
O=C(Nc1ccn(-c2c(F)cccc2F)n1)c1ccccc1I [Compound I-1-83],log P,[1],2.67
same,efficacy,Boophilus microplus,100%
O=C(Nc1ccn(-c2c(F)cccc2F)n1)c1cccnc1Br [Compound I-1-96],log P,[1],1.97
same,efficacy,Boophilus microplus,100%
"CCOc1cccc(F)c1-n1ccc(NC(=O)c2ccccc2Cl)n1 [Compound I-1-117, 2-Chloro-N-[1-(2-ethoxy-6-fluorophenyl)-1H-pyrazol-3-yl]benzamide]",chromatographic logP,[1]; [2],2.84
same,pest or weed control at 20 ppm,Meloidogyne incognita,100%
same,pest or weed control at 500 g/ha,Phaedon cochleariae,100%
O=C(Nc1ccn(-c2ncccc2Cl)n1)c1ccccc1Br [Compound I-1-137],log P,[1],2.23
same,nematicidal effect (formation of galls),Meloidogyne incognita,80%
"O=C(Nc1ccn(-c2ncc(F)cc2F)n1)c1c(F)cccc1F [Compound I-1-146, N-[1-(3,5-Difluoropyridin-2-yl)-1H-pyrazol-3-yl]-2,6-difluorobenzamide]",chromatographic logP,[1]; [2],2.19
same,pest or weed control at 100 ppm,Cooperia curticei,100%
same,pest or weed control at 20 ppm,Meloidogyne incognita,100%
O=C(Nc1ccn(-c2ccccc2C(F)(F)F)n1)c1ccccc1Br [Compound I-1-186],log P,[1],2.96
same,efficacy (kill),Lucilia cuprina larvae,80%
O=C(Nc1ccn(-c2cccc(F)c2F)n1)c1ccccc1I [Compound I-1-190],log P,[1],3.09
same,nematicidal effect (formation of galls),Meloidogyne incognita,90%
Cc1cc(NC(=O)c2cccnc2Br)nn1-c1ccc(F)cc1F [Compound I-1-210],log P,[1],2.89
same,efficacy in %,spider mites; application rate of 500 g/ha,95%
O=C(Nc1ccn(-c2c(F)cccc2F)n1)c1cccnc1C(F)F [Compound I-1-248],log P,[1],1.99
same,efficacy in %,spider mites; application rate of 500 g/ha,80%
O=C(c1ccccc1C(F)(F)F)N(CC1CC1)c1ccn(-c2c(F)cccc2F)n1 [Compound I-1-258],log P,[1],3.68
same,efficacy in %,spider mites; application rate of 500 g/ha,95%
CCOCN(C(=O)c1ccccc1C(F)(F)F)c1ccn(-c2c(F)cccc2F)n1 [Compound I-1-262],log P,[1],3.40
same,efficacy in %,spider mites; application rate of 500 g/ha,95%
CC#CCN(C(=O)c1ccccc1C(F)(F)F)c1ccn(-c2c(F)cccc2F)n1 [Compound I-1-263],log P,[1],3.40
same,efficacy in %,spider mites; application rate of 500 g/ha,95%
O=C(Nc1ccn(-c2ncc(Cl)cc2Cl)n1)c1ccccc1C(F)(F)F [Compound I-1-428],log P,[1],3.05
same,efficacy in %,spider mites; application rate of 500 g/ha,95%
"O=C(Nc1ccn(-c2c(F)cc(F)c[n+]2[O-])n1)c1ccccc1C(F)(F)F [Compound I-1-438, N-[1-(3,5-Difluoro-1-oxidopyridin-2-yl)-1H-pyrazol-3-yl]-2-(trifluoromethyl)benzamide]",chromatographic logP,[1]; [2],1.69
same,pest or weed control at 20 ppm,Meloidogyne incognita,90%
"N#Cc1nccnc1-n1ccc(NC(=O)c2ccccc2C(F)(F)F)n1 [Compound I-1-574, N-[1-(3-Cyanopyrazin-2-yl)-1H-pyrazol-3-yl]-2-(trifluoromethyl)benzamide]",chromatographic logP,[1]; [2],2.47
same,pest or weed control at 20 ppm,Meloidogyne incognita,100%
"N#Cc1cccnc1-n1ccc(NC(=O)c2ccccc2C(F)(F)F)n1 [Compound I-1-575, N-[1-(3-Cyanopyridin-2-yl)-1H-pyrazol-3-yl]-2-(trifluoromethyl)benzamide]",chromatographic logP,[1]; [2],2.55
same,pest or weed control at 20 ppm,Cooperia curticei,100%
same,pest or weed control at 20 ppm,Meloidogyne incognita,100%
O=C(Nc1ccn(-c2ccc(F)cn2)n1)c1ccccc1C(F)(F)F [Compound I-1-596],log P,[1],2.88
same,efficacy in %,spider mites; application rate of 500 g/ha,95%
O=C(Nc1ccn(-c2ccc(F)cn2)n1)c1c(F)cccc1F [Compound I-1-598],log P,[1],2.61
same,efficacy in %,spider mites; application rate of 500 g/ha,85%
"N#Cc1c(-c2ccc(F)cc2)ccnc1-n1ccc(NC(=O)c2ccccc2C(F)(F)F)n1 [Compound I-1-641, N-{1-[3-Cyano-4-(4-fluorophenyl)pyridin-2-yl]-1H-pyrazol-3-yl}-2-(trifluoromethyl)benzamide]",chromatographic logP,[1]; [2],3.41
same,pest or weed control at 20 ppm,Meloidogyne incognita,90%
O=C(Nc1cnn(-c2ccccc2Cl)n1)c1ccccc1Cl [Compound I-2-2],log P,[1],2.89
same,efficacy (kill),Lucilia cuprina larvae,80%
"O=C(Nc1cnn(-c2c(F)cccc2F)n1)c1ccccc1C(F)(F)F [Compound I-2-35, N-[2-(2,6-Difluorophenyl)-2H-1,2,3-triazol-4-yl]-2-(trifluoromethyl)benzamide]",chromatographic logP,[1],2.8
same,pest or weed control at 20 ppm,Cooperia curticei,100%
same,pest or weed control at 20 ppm,Meloidogyne incognita,100%
same,pest or weed control at 500 g/ha,Phaedon cochleariae,100%
"O=C(Nc1ccn(-c2c(F)cccc2F)c1)c1ccccc1C(F)(F)F [Compound I-3-1, N-[1-(2,6-Difluorophenyl)-1H-pyrrol-3-yl]-2-(trifluoromethyl)benzamide]",chromatographic logP,[1]; [2],2.96
same,pest or weed control at 20 ppm,Cooperia curticei,100%
same,pest or weed control at 20 ppm,Meloidogyne incognita,90%
same,efficacy (kill),Lucilia cuprina larvae,80%
same,pest or weed control at 500 g/ha,Phaedon cochleariae,100%
